Experiments:
[1] = system: GM-CSF-induced STAT5 phosphorylation; experiment: Whole blood assay, GM-CSF stimulation, phospho-STAT5 by FACS; assay type: cell-based; details: human whole blood, CD14+ cells, 8 different donors
Experimental: In addition, a flow cytometry analysis was performed to establish JAK1 over JAK2 compound selectivity ex vivo using human whole blood. Therefore, blood was taken from human volunteers who gave informed consent. Blood was then equilibrated for 30 min at 37° C. under gentle rocking, then aliquoted in Eppendorf tubes. Compound was added at different concentrations and incubated at 37° C. for 30 min under gentle rocking and subsequently stimulated for 20 min at 37° C. under gentle rocking with interleukin 6 (IL-6) for JAK1-dependent pathway stimulation or GM-CSF for JAK2-dependent pathway stimulation. Phospho-STAT1 and phospho-STAT5 were then evaluated using FACS analysis.
For GM-CSF-stimulated increase of Signal Transducers and Activators of Transcription 5 (pSTAT5) phosphorylation in white blood cell, human whole blood, drawn from human volunteers who gave informed consent, is ex vivo treated with compound for 30 min and subsequently stimulated for 20 min with GM-CSF. The increase in phosphorylation of STAT5 by GM-CSF in monocytes is measured using an anti phospho-STAT5 antibody by FACS. […]
Cells are then washed once with 1×PBS and analyzed on a FACSCanto II flow cytometer (BD Biosciences).
50,000 total events are counted and Phospho-STAT5 positive cells are measured after gating on CD14+ cells. […]

HeLa cells = experiment: JAK-STAT signalling assay (OSM-triggered pSTAT1(2)-luciferase reporter); assay type: cell-based; details: human OSM 33 ng/mL, STAT1 luciferase reporter, individual determinations
Experimental: HeLa cells were maintained in Dulbecco's Modified Eagle's Medium (DMEM) containing 10% heat inactivated fetal calf serum, 100 U/mL penicillin and 100 μg/mL streptomycin. HeLa cells were used at 70% confluence for transfection. 20,000 cells in 87 μL cell culture medium were transiently transfected with 40 ng pSTAT1(2)-luciferase reporter (Panomics), 8 ng of LacZ reporter as internal control reporter and 52 ng of pBSK using 0.32 μL Jet-PEI (Polyplus) as transfection reagent per well in 96-well plate format. After overnight incubation at 37° C., 5% CO2, transfection medium was removed. 81 μL of DMEM+1.5% heat inactivated fetal calf serum was added. […]
40 μL of cell lysate was used to read β-galactosidase activity by adding 180 μL β-Gal solution (30 μL ONPG 4 mg/mL+150 μL β-Galactosidase buffer (0.06 M Na2HPO4, 0.04 M NaH2PO4, 1 mM MgCl2)) for 20 min. The reaction was stopped by addition of 50 μL Na2CO3 1 M. Absorbance was read at 405 nm.
Luciferase activity was measured using 40 μL cell lysate plus 40 μL of Steadylite® as described by the manufacturer (Perkin Elmer), on the Envision (Perkin Elmer). […]
Percentage inhibition=((fluorescence determined in the presence of vehicle−fluorescence determined for sample with test compound present) divided by (fluorescence determined in the presence of vehicle−fluorescence determined for sample without trigger))[…]. […]

## CCc1cc(C2CN(S(C)(=O)=O)C2)ncc1N(C)c1cc2c(cn1)ncn2C [Compound 1, [4-Ethyl-6-(1-methanesulfonyl-azetidin-3-yl)-pyridin-3-yl]-methyl-(1-methyl-1H-imidazo[4,5-d]pyridin-6-yl)-amine]
[1]
  IC50: > 22400 nM
HeLa cells; Homo sapiens, HeLa
  IC50: 1650 nM
HeLa cells; listed as compound of the invention
  IC50: 1660 nM

Source: patent US20140213576A1, “NOVEL COMPOUND USEFUL FOR THE TREATMENT OF DEGENERATIVE AND INFLAMMATORY DISEASES” (GALAPAGOS NV, priority 2013, published 2014)
